Experimental data taken from US20120118197A1, “BUILDING MATERIALS RESISTANT TO ROOT PENETRATION AND METHODS FOR MAKING THE SAME” (LANXESS DEUTSCHLAND GMBH, priority 2008, published 2012).

Tested on: Lupinus albus
Assay: Greenhouse root penetration test in bitumen membranes (DIN CEN/TS 14416)
Conditions: for No. of emerged plants average: 35 seeds planted; for No. of roots grew into bitumen average / No. of roots stopped at bitumen average / Plant height average: six weeks; for No. of roots grew thoughout bitumen average: average of 3 replicates
Description: A greenhouse study was carried out to compare the effectiveness of different herbicides to prevent root penetration in bitumen roof sealing membranes without killing the plant or adversely affecting it.
The herbicides were incorporated into bitumen 160/220 (thickness 4.5-6 mm) during a standard bitumen manufacturing process. The manufacturing process comprised a step of heating the bitumen mixture before a fibreglass grid was incorporated as a reinforcement of the bitumen membrane.
The herbicides Napropamide (N,N-Diethyl-2-(1-naphthyloxy)propanamide, CAS No. (S)-(+) isomer: 41643-36-1) and Prodiamine (2,4-dinitro-N3,N3-dipropyl-6-(trifluoromethyl)-1,3-benzenediamine, CAS No. 29091-21-2) were formulated as oil dispersion with 25% active ingredient. The (R)-2-(4-chlorine-o-tolyloxy)propionic acid ethyl-hexylester (trader name: ‘HERBITECT™’, 2 ethylhexyl-2-(R)-2-(4-chloro-o-tolylory)propionate) may be obtained from Büsscher & Hoffman, Fabrikstrasse 2, A-4470 Enns, Austria and was formulated as oil dispersion with approx. 95% active ingredient.
Resistance of the bitumen against root penetration was evaluated according to the standard test method known in the art as: DIN CEN/TS 14416 ‘Geosynthetische Dichtungsbahnen—Prüfverfahren zur Bestimmung des Widerstandes gegen Wurzeln, Deutsche Fassung CEN/TS14416:2005’. Bitumen membranes containing Napropamide and Prodiamine, respectively were evaluated at active ingredient concentrations of 0.5%, 0.25%, 0.125% and 0.0625% based on raw bitumen. […] Bitumen membranes without incorporated herbicide were used as a control. Three discs with a diameter of 25 cm were punched out of each bitumen membrane and used for the study.
Unglazed, earthenware flowerpots approx. 22 cm high were filled with a soil-mixture [soil low in calcium/TKS1 (3:1)] to 10 cm from the bottom of the pot. Bitumen discs were put on top of the soil layer and the gap between the disc and the pot was sealed with aquarium silicone sealant. The diameter of the discs was approximately that of the internal diameter halfway up the pots. The bitumen discs were covered with approximately 9 cm soil and a plastic watering pipe was insert into the soil of each pot. Thirty five lupine seeds (Lupinus albus) were planted in the soil and covered with about 1 cm of soil. Two pots filled only with soil were used as a control for seed germination and plant growth.
The seeds were growing in a greenhouse under artificial light (14 h photoperiod, 20-22° C., relative humidity 60%). The soil above the bitumen disc was watered with rain water led through the plastic pipe into the pots so that the surface of the bitumen was kept damp. The soil beneath the bitumen discs was kept moist by standing from time to time the pots in water-filled trays. After six weeks the soil of the pots was removed from the roots by gentle running water. The bottom side of bitumen membranes was inspected to see whether any roots have grown through the bitumen, and the upper side was examined to assess the number of roots penetrating the bitumen and the depth of penetration. During the assessments, bitumen discs, roots, and above ground parts of the plants were recorded.

[1] = 0.0625% active ingredient based on raw bitumen
[2] = 0.0625% active ingredient, replicate 1
[3] = 0.0625% active ingredient, replicate 2
[4] = 0.0625% active ingredient, replicate 3
[5] = 0.125% active ingredient based on raw bitumen
[6] = 0.125% active ingredient, replicate 1
[7] = 0.125% active ingredient, replicate 2
[8] = 0.125% active ingredient, replicate 3
[9] = 0.25% active ingredient based on raw bitumen
[10] = 0.25% active ingredient, replicate 1
[11] = 0.25% active ingredient, replicate 2
[12] = 0.25% active ingredient, replicate 3
[13] = 0.5% active ingredient based on raw bitumen
[14] = 0.5% active ingredient, replicate 1
[15] = 0.5% active ingredient, replicate 2
[16] = 0.5% active ingredient, replicate 3
[17] = 0.38% active ingredient based on raw bitumen

Structure (SMILES) | No. of roots grew into bitumen average [1] | No. of roots stopped at bitumen average [1] | No. of roots grew thoughout bitumen average (0.0625% active ingredient) | No. of roots grew thoughout bitumen (3 replicates shown) [2] | No. of roots grew thoughout bitumen (3 replicates shown) [3] | No. of roots grew thoughout bitumen (3 replicates shown) [4] | No. of roots grew into bitumen average [5] | No. of roots stopped at bitumen average [5] | No. of roots grew thoughout bitumen average (0.125% active ingredient) | No. of roots grew thoughout bitumen (3 replicates shown) [6] | No. of roots grew thoughout bitumen (3 replicates shown) [7] | No. of roots grew thoughout bitumen (3 replicates shown) [8] | No. of roots grew into bitumen average [9] | No. of roots stopped at bitumen average [9] | No. of roots grew thoughout bitumen average (0.25% active ingredient) | No. of roots grew thoughout bitumen (3 replicates shown) [10] | No. of roots grew thoughout bitumen (3 replicates shown) [11] | No. of roots grew thoughout bitumen (3 replicates shown) [12] | No. of roots grew into bitumen average [13] | No. of roots stopped at bitumen average [13] | further results
CCCN(CCC)c1c([N+](=O)[O-])cc(C(F)(F)F)c(N)c1[N+](=O)[O-] [Prodiamine, 2,4-dinitro-N3,N3-dipropyl-6-(trifluoromethyl)-1,3-benzenediamine] | approx. >50 | approx. >50 | 20.3 | 27 | 16 | 18 | approx. >50 | approx. >50 | 12.0 | 12 | 18 | 6 | approx. >50 | approx. >50 | 6.7 | 9 | 6 | 5 | approx. >50 | approx. >50 | No. of emerged plants average [1]: 33.7; Plant height average [1]: 33.7 cm; No. of emerged plants average [5]: 34.7; Plant height average [5]: 32.3 cm; No. of emerged plants average [9]: 34.3; Plant height average [9]: 31.0 cm; No. of emerged plants average [13]: 34.3; Plant height average [13]: 34.0 cm; No. of roots grew thoughout bitumen average (0.5% active ingredient): 2.7; No. of roots grew thoughout bitumen (3 replicates shown) [14]: 1; No. of roots grew thoughout bitumen (3 replicates shown) [15]: 3; No. of roots grew thoughout bitumen (3 replicates shown) [16]: 4; Effectiveness to restrict root growth throughout bitumen (compared to Napropamide and the standard product HERBITECT): slightly less effective
CCN(CC)C(=O)C(C)Oc1cccc2ccccc12 (centres unmarked) [Napropamide, N,N-Diethyl-2-(1-naphthyloxy)propanamide] | approx. >50 | approx. >50 | 1.3 | 1 | 1 | 2 | approx. >50 | approx. >50 | 0.7 | 0 | 2 | 0 | 40.0 | approx. >50 | 0.3 | 0 | 0 | 1 | 30.3 | approx. >50 | No. of roots grew thoughout bitumen average (0.5% active ingredient): 0.3; No. of roots grew thoughout bitumen (3 replicates shown) [14]: 1; No. of roots grew thoughout bitumen (3 replicates shown) [15]: 0; No. of roots grew thoughout bitumen (3 replicates shown) [16]: 0; Penetration of upper side of bitumen compared to the untreated bitumen (at 0.5% and 0.25%, respectively): penetrated to less extent; Root elongation through bitumen (at 0.5% and 0.25%, exception in a replicate showing one root penetration): stopped completely; Harm to the remaining plant parts (in vivo): not harmful; Effectiveness to prevent root penetration of bitumen membranes (overall conclusion of the study): highly effective
CCCCC(CC)COC(=O)[C@@H](C)Oc1ccc(Cl)cc1C (stereo partly drawn) [Herbitect, (R)-2-(4-chlorine-o-tolyloxy)propionic acid ethyl-hexylester] | – | – | – | – | – | – | – | – | – | – | – | – | – | – | – | – | – | – | – | – | No. of emerged plants average [17]: 33.0; No. of roots grew into bitumen average [17]: 46.7; No. of roots stopped at bitumen average [17]: approx. >50; Plant height average [17]: 34.0 cm; No. of roots grew thoughout bitumen average (0.38% active ingredient): 0; No. of roots grew thoughout bitumen (3 replicates shown) (0.38% active ingredient, replicate 1): 0; No. of roots grew thoughout bitumen (3 replicates shown) (0.38% active ingredient, replicate 2): 0; No. of roots grew thoughout bitumen (3 replicates shown) (0.38% active ingredient, replicate 3): 0; Penetration of upper side of bitumen compared to the untreated bitumen (at 0.38%): penetrated to less extent; Root penetration throughout bitumen (standard product, 0.38%): without any root penetration
